In patent US20220288051A1, “METHODS FOR TREATING CANCER USING SERIAL ADMINISTRATION OF E3 UBIQUITIN LIGASE DEGRADERS” (Dana-Farber Cancer Institute, Inc., priority 2019, published 2022):
“Also recorded” adds a separate entry of the source.

Key:
BRD2 = molecular target: T1, BRD2 (Homo sapiens, UniProt P25440); assay: Immunoblotting of degronimid-treated MM.1S cells: BRD2; type: cell-based; settings: 0.01-1 μM, 4 h
T1 construct: endogenous in cells; host or cells: MM.1S
Procedure: MM.1S cells were seeded in 6-well plates at 3×10^6 cells/well (˜24 h prior to addition of drug). […] Cell pellets were thawed on ice, lysed using RIPA buffer (ThermoFisher) with protease/phosphatase inhibitor cocktail (Cell Signal Technology, Danvers, Mass.) by incubating on ice 30 min. The lysates were clarified by spinning at 10,000 g for 10 min at 4° C. and the concentration of the lysate was determined using BCA protocol (ThermoFisher). Samples were prepared for Western blot using LDS sample buffer (NuPage, Invitrogen, Carlsbad, Calif., USA) with sample reducing agent (NuPage, Invitrogen) and heated to 95° C. for 5 min. Samples were loaded (20 ug/sample) into Tris-acetate or Bis-Tris gels (NuPage, Invitrogen) and run as per kit instructions using appropriate running buffers. Gels were transferred as described (Matthews et al., 2015) onto PVDF membrane using SDS-based transfer buffer (NuPage, Invitrogen). Membranes were blocked (5% skim milk; or 5% bovine serum albumin in TBS-T) for at least 30 min then probed with primary antibodies overnight (4° C.). […] Each protein of interest (BRD2, BRD3, BRD4, c-myc and CDK9) was assessed in a separate gel and corresponding membrane (which was simultaneously incubated with antibodies for both the target protein of interest and GAPDH, to provide a loading control within the same blot). […]

human MM.1S cells = assay: Subcutaneous MM xenograft model; type: in vivo, NSG mice
Procedure: i. Subcutaneous MM xenograft model: Luciferase-positive MM.1S cells (10×106 Luc-GFP-MM.1S in matrigel) were transplanted into the right flank of NSG mice (100 μL). […] Treatments were carried out daily for 8 days and tumor size assessed daily using calipers. Mice were culled when tumors reached 2000 mm3 or when moribund.

MM.1S cells [1] = assay: CTG viability of CRISPR-edited MM.1S pools tolerant to bortezomib or JQ1; type: cell-based, human; settings: vs treatment-naive cells with the same sgRNA library
Procedure: Cell viability and growth of human MM cell lines were assessed using CellTitre-Glo (CTG) assay (Promega, Madison, Wis.) per kit instructions, or CS-BLI as described (Delmore et al., 2011). Briefly, cells were seeded (5×10^3 cells/well) into 96- or 384-well opaque plates, in supplemented media (40 or 50 uL) and incubated for 24 h prior to addition of drug. For co-culture experiments, HS27A cells were pre-seeded (5×10^3 cells/well) into each well in media prior (24 h) to the addition of MM cells. At each time point (24 h, 48 h, and/or 72 h) CTG reagent (10% volume) was added to each well, and plates were read using a microplate reader (BioTek Synergy 2, BioTek, Winooski, Va.).
iii. […] Following treatments, all cells were serially cultured without drug and allowed to regrow for as long as required to enable reseeding (60×10^6 cells per flask, 100 mL) and retreatment with individual drugs while maintaining ˜1000× coverage throughout. Concomitant with retreatment, remaining cells were frozen (−80° C.; 20% FBS/DMSO) for later analysis or assessed for drug resistance/sensitivity using CTG assays. Between treatments, and in order to maintain the health of cultures, dead cells were periodically removed using Ficoll centrifugation (1,500 rpm for 10-20 min). For all CRISPR drug treatment experiments, aliquots of MM.1S-Cas9+ cells transduced with the GeCKO(Sanjana et al., 2014; Shalem et al., 2014) or Brunello (Doench et al., 2016) sgRNA libraries were frozen immediately prior to experimentation to determine the baseline distribution of sgRNAs in the cell population.

MM.1S cells [2] = assay: Reverse phase protein array (RPPA) of treated MM.1S cells; type: cell-based, human
Procedure: MM.1S cells were seeded in 6-well plates (2×10^6/well) and cultured overnight prior to treatment. […] Lysates of these protein samples were processed by the Functional Proteomics RPPA Core Facility of the MD Anderson Cancer Center (Houston, Tex.), based on protocols and procedures outlined in the website of the facility (mdanderson.org/research/research-resources/core-facilities/functional-proteomicsrppa-core/rppa-process.html) and similarly to prior reports (Li et al., 2017). We mapped protein antibody labels to gene symbols available from Antibody Information and Protocols at MDACC (mdanderson.org/content/dam/mdanderson/documents/corefacilities/Functional%20Proteomics %20RPPA%20Core%20Facility/RPPA_Standard%20Ab%20List_Updated.xlsx). For data preprocessing, results from replicates of the same experimental run were averaged for each protein. The resulting matrix of RPPA data was further processed to generate log-transformed linear normalized data, linear normalized, and normalized median centered data. The differential protein expression analysis for dBET6- or JQ1-treated samples vs. controls were performed using the limma moderated t-statistic (Ritchie et al., 2015).

patient-derived MM cells = assay: Ex vivo treatment of patient-derived CD138+ tumor cells, CTG; type: cell-based, human; settings: variable prior therapies
Procedure: Bone marrow aspirates (1-4 mL) from individuals with MM (newly diagnosed, smoldering, relapsed/refractory, maintenance treatment) or MGUS were collected after patients provided informed consent and based on tissue collection protocol approved by the Dana-Farber Cancer Institute Institutional Review Board. Samples were processed for separation of CD138+ plasma cells, using CD138-positive selection beads, and immunomagnetic separation, as per kit instructions (EasySep, StemCell, Cambridge, Mass.). Patient-derived tumor cells were cultured in RPMI 1640 medium supplemented with L-glutamine (Life Technologies, Carlsbad, Calif., USA), FBS (10%) (Gemini Bioproducts, Woodland, Calif.), 20 I.U./mL penicillin and 20 μg/mL streptomycin (Fisher Scientific, Springfield, N.J., USA) and hIL-6 (Thermo Fisher Scientific, Waltham, Mass., USA […]).
Samples were processed for separation of CD138+ plasma cells, using CD138-positive selection beads, and immunomagnetic separation, as per kit instructions (EasySep, StemCell, Cambridge, Mass.). […] Viability was assessed using CTG, as described (24 h, 48 h, 72 h) and each treatment was repeated up to 3 times (n=3 biological replicates).

[3] = system: OPM1, OCI-MY5, KMS11 and OPM2 (shRNAs against CRBN); assay: CTG viability of MM cell lines with low CRBN levels; type: cell-based, human; settings: low but detectable CRBN, constitutive or shRNA
Description: Human MM cell lines KMS11 and OPM-2 expressing non-targeting control shRNAs or shRNA.

T1 sequence (P25440 whole entry): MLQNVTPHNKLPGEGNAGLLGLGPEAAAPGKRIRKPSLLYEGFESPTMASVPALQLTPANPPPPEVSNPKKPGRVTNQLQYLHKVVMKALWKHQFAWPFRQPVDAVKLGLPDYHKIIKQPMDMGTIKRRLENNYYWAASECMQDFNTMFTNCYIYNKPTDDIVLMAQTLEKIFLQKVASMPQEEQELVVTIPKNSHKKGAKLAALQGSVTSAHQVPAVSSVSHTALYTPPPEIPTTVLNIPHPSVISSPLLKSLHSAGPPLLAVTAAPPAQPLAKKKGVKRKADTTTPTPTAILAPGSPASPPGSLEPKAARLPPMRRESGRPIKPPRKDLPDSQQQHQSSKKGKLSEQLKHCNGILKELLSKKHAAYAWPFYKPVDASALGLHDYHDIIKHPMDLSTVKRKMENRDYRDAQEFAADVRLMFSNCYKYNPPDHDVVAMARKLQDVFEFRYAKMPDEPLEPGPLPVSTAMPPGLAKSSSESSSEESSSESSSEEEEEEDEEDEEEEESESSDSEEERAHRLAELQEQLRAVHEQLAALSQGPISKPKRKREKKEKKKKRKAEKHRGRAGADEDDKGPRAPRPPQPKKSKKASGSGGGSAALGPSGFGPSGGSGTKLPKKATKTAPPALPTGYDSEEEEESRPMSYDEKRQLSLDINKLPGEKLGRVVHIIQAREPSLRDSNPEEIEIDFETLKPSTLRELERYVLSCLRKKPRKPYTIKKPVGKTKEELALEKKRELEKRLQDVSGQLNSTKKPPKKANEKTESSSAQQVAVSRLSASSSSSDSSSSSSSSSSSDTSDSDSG

Cc1sc2c(c1C)C(c1ccc(Cl)cc1)=N[C@@H](CC(=O)NCCCCCCCCNC(=O)COc1cccc3c1C(=O)N(C1CCC(=O)NC1=O)C3=O)c1nnc(C)n1-2 (stereo partly drawn) [dBET6]
BRD2 protein levels (BRD2): rapid and robust depletion | rate of tumor growth increase (human MM.1S cells; 30 mg/kg, QD, 8d, IP): significantly suppressed the rate of tumor growth increase | increase in overall survival (human MM.1S cells; 30 mg/kg, QD, 8d, p<0.05): 10 days | survival (human MM.1S cells; subcutaneous MM xenografts): prolongation of survival | tumor burden vs vehicle (human MM.1S cells; subcutaneous MM.1S xenograft): significantly lower tumor burden | dBET6 sensitivity of pools tolerant to bortezomib or JQ1 (MM.1S cells [1]): do not exhibit resistance to dBET6; also recorded: equal to or greater than treatment-naive cells | protein changes at 4 hrs (MM.1S cells [2]; MM.1S, dBET6 0.1 μM, JQ1 0.5 μM, 4 hrs): causes downregulation of Mcl-1, Cyclin B1 (not shown), and BRD4 | RPPA expression of pro-survival and pro-apoptotic proteins (MM.1S cells [2]; MM.1S, dBET6 0.1 μM, 4 h and 18 h): reduce the expression of key pro-survival proteins, such as MCL-1, c-MYC, and pS6, while leading to the upregulation of cell cycle inhibitor, p21, and cleavage of executioner caspases 3 and 7 | protein changes at later time-points (MM.1S cells [2]; MM.1S, dBET6 0.1 μM, later time-points): suppression of Ser240/Ser244 S6 phosphorylation; induction of p21, and increase in cleaved caspase3/7 | suppression of c-MYC at protein level (MM.1S cells [2]; dBET6 vs JQ1-treated MM.1S cells): more pronounced suppression of c-MYC | response of patient-derived cells (patient-derived MM cells): dose-dependent response | response of lines with low CRBN levels [3]: remained responsive to dBET6
